From ChEMBL document CHEMBL1201862, “PubChem BioAssay data set” (2004)
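Assay format: 96-well plates, 48-hour exposure. Abbreviation: GI50, concentration required for 50% inhibition of growth.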 Active and inactive are the calls of the source. Cut-off read from the data, not from the text of the source: active = GI50 up to about 1.1 µM and inactive = higher.

Tests used:
Assay in all cases: inhibition of tumour cell growth, NCI panel, 48 h
HT-29 = tested on: HT-29
PC-3 = tested on: PC-3
NCI-H23 = tested on: NCI-H23
OVCAR-8 = tested on: OVCAR-8
SK-MEL-2 = tested on: SK-MEL-2
RXF 393 = tested on: RXF 393
M14 = tested on: M14
HL-60 = tested on: HL-60
SF-295 = tested on: SF-295
UO-31 = tested on: UO-31
MDA-MB-231 = tested on: MDA-MB-231
COLO 205 = tested on: COLO 205
EKVX = tested on: EKVX
HCT-15 = tested on: HCT-15
UACC-62 = tested on: UACC-62
SK-MEL-28 = tested on: SK-MEL-28
OVCAR-3 = tested on: OVCAR-3
NCI-H226 = tested on: NCI-H226
CCRF-CEM = tested on: CCRF-CEM
T47D = tested on: T47D

| SMILES | GI50 (HT-29) | GI50 (PC-3) | GI50 (NCI-H23) | GI50 (OVCAR-8) | GI50 (SK-MEL-2) | GI50 (RXF 393) | GI50 (M14) | GI50 (HL-60) | GI50 (SF-295) | GI50 (UO-31) | GI50 (MDA-MB-231) | GI50 (COLO 205) | GI50 (EKVX) | GI50 (HCT-15) [µM] | GI50 (UACC-62) | GI50 (SK-MEL-28) | GI50 (OVCAR-3) | GI50 (NCI-H226) | GI50 (CCRF-CEM) | GI50 (T47D) |
| --- | --- | --- | --- | --- | --- | --- | --- | --- | --- | --- | --- | --- | --- | --- | --- | --- | --- | --- | --- | --- |
| CC(C)OC(=O)C1=C2c3ncccc3C(=O)N2[C@@H](Cl)[C@@H](Cl)[C@@H]1Cl | > 100 µM (inactive) | > 100 µM (inactive) | > 100 µM (inactive) | 39.8 µM (inactive) | > 100 µM (inactive) | > 100 µM (inactive) | > 100 µM (inactive) | 25.8 µM (inactive) | > 100 µM (inactive) | > 100 µM (inactive) | > 100 µM (inactive) | > 100 µM (inactive) | > 100 µM (inactive) | > 100 | > 100 µM (inactive) | > 100 µM (inactive) | > 100 µM (inactive) | > 100 µM (inactive) | – | – |
| Fc1ccc(/N=N/N2CCCC2)cc1 | > 100 µM (inactive) | – | > 100 µM (inactive) | – | > 100 µM (inactive) | > 100 µM (inactive) | > 100 µM (inactive) | 50.4 µM (inactive) | 8.04 µM (inactive) | 27 µM (inactive) | > 100 µM (inactive) | > 100 µM (inactive) | > 100 µM (inactive) | 25.2 | 7.08 µM (inactive) | 94 µM (inactive) | > 100 µM (inactive) | > 100 µM (inactive) | 52.2 µM (inactive) | 19.2 µM (inactive) |
| CCC1OC2C(CC=C(C)C)=C3OC(C)(O)C(C)(CC)C(OC(=O)c4ccccc4)C3=C3OC(=O)C=C1C32 (stereo not drawn) | 40.8 µM (inactive) | 40.1 µM (inactive) | 35.2 µM (inactive) | 39.2 µM (inactive) | 22.8 µM (inactive) | – | 45.2 µM (inactive) | 3.44 µM (inactive) | 34.3 µM (inactive) | 37.2 µM (inactive) | 22.4 µM (inactive) | 18.1 µM (inactive) | 31.6 µM (inactive) | 38.4 | 30.5 µM (inactive) | 83.9 µM (inactive) | 51.6 µM (inactive) | – | 59.2 µM (inactive) | 29 µM (inactive) |
| c1ccc(/N=C(/Nc2ccccc2)N2CCCC2)cc1 | > 100 µM (inactive) | 79.1 µM (inactive) | > 100 µM (inactive) | > 100 µM (inactive) | > 100 µM (inactive) | – | > 100 µM (inactive) | > 100 µM (inactive) | > 100 µM (inactive) | > 100 µM (inactive) | – | > 100 µM (inactive) | > 100 µM (inactive) | > 100 | > 100 µM (inactive) | > 100 µM (inactive) | > 100 µM (inactive) | > 100 µM (inactive) | > 100 µM (inactive) | > 100 µM (inactive) |
| CCOc1ccc(/N=N/C2C(=O)N(C(=O)CC(=O)Nc3ccc(C)cc3)N=C2C)cc1 (stereo not drawn) | 24 µM (inactive) | > 100 µM (inactive) | 26.5 µM (inactive) | 16.6 µM (inactive) | 26.6 µM (inactive) | – | 52.7 µM (inactive) | 13.1 µM (inactive) | 21.2 µM (inactive) | 29.4 µM (inactive) | 17 µM (inactive) | > 100 µM (inactive) | 6.68 µM (inactive) | 38.1 | 16.7 µM (inactive) | 30.8 µM (inactive) | 20.6 µM (inactive) | 26.3 µM (inactive) | 43.6 µM (inactive) | 37.8 µM (inactive) |
| CC1(C)CC[C@]2(C(=O)O)CC[C@]3(C)C(=CC[C@@H]4[C@@]5(C)CC[C@@H]6OC(C)(C)OC[C@@]6(C)[C@@H]5CC[C@]43C)[C@H]2C1 | 4.54 µM (inactive) | 5.4 µM (inactive) | 3.91 µM (inactive) | 7.64 µM (inactive) | 17.3 µM (inactive) | – | 15.5 µM (inactive) | 8.51 µM (inactive) | 5.18 µM (inactive) | 12.1 µM (inactive) | 3.04 µM (inactive) | 11.3 µM (inactive) | 5.08 µM (inactive) | 2.87 | 10.4 µM (inactive) | 14.4 µM (inactive) | 4.54 µM (inactive) | – | 15.4 µM (inactive) | 13.9 µM (inactive) |
| O=[N+]([O-])c1cn[n+]([O-])c2ccccc12 | 4.65 µM (inactive) | 8.28 µM (inactive) | 14.7 µM (inactive) | 2.18 µM (inactive) | – | – | 2.87 µM (inactive) | 1.17 µM (inactive) | 4.75 µM (inactive) | – | 13.2 µM (inactive) | 13.2 µM (inactive) | 12.9 µM (inactive) | 2.06 | – | 10.4 µM (inactive) | 2.55 µM (inactive) | 7.36 µM (inactive) | 2.74 µM (inactive) | 3.7 µM (inactive) |
| COc1ccccc1C1c2cc3c(cc2OC(N2CCCC2)C1C)OCO3 (stereo not drawn) | 21.4 µM (inactive) | 16 µM (inactive) | 18.3 µM (inactive) | 21.2 µM (inactive) | 14.8 µM (inactive) | 3.76 µM (inactive) | 13.7 µM (inactive) | 14.2 µM (inactive) | 16.7 µM (inactive) | 10.4 µM (inactive) | – | 18 µM (inactive) | 18.3 µM (inactive) | 17.2 | 16.2 µM (inactive) | 20.4 µM (inactive) | 15.7 µM (inactive) | – | 19.5 µM (inactive) | 13.9 µM (inactive) |
